Consider 13 molecules from patent publication US9642831B2, “Substituted chromanes and method of use” (AbbVie S.á.r.l., priority 2014, dated 2017).

Molecules are shown by their SMILES.

The target of data set [1] is T1, F508delCFTR (Homo sapiens, UniProt P13569, DEL508-508). Briefly: Cell Surface Expression-Horse Radish Peroxidase (CSE-HRP) assay. The data set is classed as cell-based. Further details: expressed in transfected cells; host or cells: CFBE41o- human lung derived epithelial cell line, doxycycline-inducible. The settings on record: CFBE4lo-F508delCFTR-HRP cells; for EC50: 18-24 hours at 33° C., 8-point curve, highest concentration 20 μM, luminescence readout; for Emax: maximum % activity at any tested concentration, normalized to on-plate positive control (3 μM Example 1). The procedure, abridged: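 Following 18-24 h compound exposure at 33° C. Expression was doxycycline-induced beforehand. % activity versus DMSO and a 3 μM corrector control gave maximum activity and EC50 from a variable-Hill sigmoidal fit.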

The next data set has as its system CYP3A4. Briefly: CYP3A4 induction in primary human hepatocytes (mRNA, RT-PCR). The settings on record: test compounds 10 μM, 48 hours, % of response of positive control (Rifampin 10 μM).
Data set [2] addresses T1, F508delCFTR. As to the kind of experiment: Transepithelial Clamp Circuit (TECC-24) conductance assay on primary human bronchial epithelial cells (hBE-TECC). The data set is classed as cell-based. Further details: cells isolated from CF patients with the homozygous mutation; endogenous in cells; host or cells: primary human bronchial epithelial (hBE) cells from F508del/F508del CF patients. The settings on record: for EC50: primary hBE cells from F508del/F508delCFTR patients, corrector 18-24 hours at 37° C., equivalent short circuit current (Ieq), with control potentiator 1 μM; for Emax: relative to positive control (3 μM Example 1 coupled with control potentiator = 100%), primary hBE F508del/F508del cells, read-out: Maximum % activity (%). The source says: Transepithelial Clamp Circuit on Human Bronchial Epithelial Cells Conductance Assay:
A cell based assay using the primary human bronchial epithelial cells (hBE) was used as a secondary assay to test novel F508delCFTR correctors for their activity on primary hBE cells with F508del/F508del CFTR mutation. The assay used a TECC-24 (Transepithelial Clamp Circuit for 24 wells) instrument that measures the functionality of the mutated channel by measuring the equivalent short circuit current (Ieq) generated by the polarized epithelial cells. The instrument works by measuring the transepithelial potential difference (Vt) and transepithelial resistance (Rt) in an open circuit format, and the Ieq is calculated by using Ohms law (Ieq=Vt/Rt). The assay was run in a 24-well format and all 24-wells were measured at the same time point giving a higher throughput for this assay.
Primary human bronchial epithelial (hBE) cells from F508del/F508delCFTR patients were expanded from 1×10^6 to 250×10^6 cells (Neuberger T, Burton B, Clark H and VanGoor F; Cystic Fibrosis, Methods in Mole Biol 741; eds. Amaral M D and Kunzelmann K, 2011). For this purpose, cells isolated from CF patients with the homozygous mutation were seeded onto 24 well Corning (Cat #3378) filter plates that were coated with 3T3 conditioned media and grown at an air-liquid interface for 35 days using an Ultroser® G supplemented differentiation media. Apical surface mucus was removed 72 hours before the experiment using 3 mM dithiothreitol (DTT) in phosphate buffered saline (PBS). The apical surface was washed again 24 hours before the experiment using PBS. The cells were incubated with the desired dose response of the corrector compounds 18-24 hours at 37° C., 5% CO2. The corrector compounds are only added on the basolateral side of the epithelial cells.
On the day of measuring the corrector activity on the TECC, the cells were switched into a bicarbonate and serum free F-12 Coon's medium and allowed to equilibrate for 90 minutes in a CO2 free incubator. At the time of measurement, the apical and basolateral sides of the filter were bathed with the F-12 Coon's modification media (with 20 mM 4-(2-hydroxyethyl)-1-piperazineethanesulfonic acid (HEPES), pH 7.4 (using 1 M tris(hydroxymethyl)aminormethane (Tris)), and the measurements were made at 36.5° C. Transepithelial voltage (Vt) and transepithelial resistance (Rt) were measured using a 24 channel transepithelial current clamp (TECC-24). Current responses to the sequential addition of benzamil (apical 6 μM addition; for inhibiting epithelial ENaC channel), forskolin (apical and basolateral 10 μM addition; for activating the CFTR channel), control potentiator (N-(3-carbamoyl-5,5,7,7-tetramethyl-4,7-dihydro-5H-thieno[2,3-c]pyran-2-yl)-1H-pyrazole-5-carboxamide; apical and basolateral 1 μM addition; for potentiating the CFTR channel) and bumetanide (basolateral 20 μM addition; for inhibiting the Na:2Cl:K co-transporter, an indirect measure of inhibiting the Cl-secretion driven by CFTR channel) were measured.
All plates contained negative controls (dimethyl sulfoxide, DMSO) which coupled with the control potentiator (N-(3-carbamoyl-5,5,7,7-tetramethyl-4,7-dihydro-5H-thieno[2,3-c]pyran-2-yl)-1H-pyrazole-5-carboxamide) sets the null response and positive controls (3 μM of 3-[(2R,4R)-4-({[1-(2,2-difluoro-1,3-benzodioxol-5-yl)cyclopropyl]carbonyl}amino)-7-methoxy-3,4-dihydro-2H-chromen-2-yl]benzoic acid) coupled with the control potentiator sets the 100% response to measure the correction of the mutated CFTR channel. The maximum percent activity is reported relative to the positive control value.
The % activity measured at each of the 6 test concentrations of the test compound was normalized to the on-plate positive control using the following formula: % activity=[(test compound response−DMSO response)/(positive control response−DMSO response)]*100 […]

By EC50 is commonly meant the concentration needed to bring the measured effect to its halfway point.

T1 sequence (P13569 with tags, fused parts or gaps DEL508-508): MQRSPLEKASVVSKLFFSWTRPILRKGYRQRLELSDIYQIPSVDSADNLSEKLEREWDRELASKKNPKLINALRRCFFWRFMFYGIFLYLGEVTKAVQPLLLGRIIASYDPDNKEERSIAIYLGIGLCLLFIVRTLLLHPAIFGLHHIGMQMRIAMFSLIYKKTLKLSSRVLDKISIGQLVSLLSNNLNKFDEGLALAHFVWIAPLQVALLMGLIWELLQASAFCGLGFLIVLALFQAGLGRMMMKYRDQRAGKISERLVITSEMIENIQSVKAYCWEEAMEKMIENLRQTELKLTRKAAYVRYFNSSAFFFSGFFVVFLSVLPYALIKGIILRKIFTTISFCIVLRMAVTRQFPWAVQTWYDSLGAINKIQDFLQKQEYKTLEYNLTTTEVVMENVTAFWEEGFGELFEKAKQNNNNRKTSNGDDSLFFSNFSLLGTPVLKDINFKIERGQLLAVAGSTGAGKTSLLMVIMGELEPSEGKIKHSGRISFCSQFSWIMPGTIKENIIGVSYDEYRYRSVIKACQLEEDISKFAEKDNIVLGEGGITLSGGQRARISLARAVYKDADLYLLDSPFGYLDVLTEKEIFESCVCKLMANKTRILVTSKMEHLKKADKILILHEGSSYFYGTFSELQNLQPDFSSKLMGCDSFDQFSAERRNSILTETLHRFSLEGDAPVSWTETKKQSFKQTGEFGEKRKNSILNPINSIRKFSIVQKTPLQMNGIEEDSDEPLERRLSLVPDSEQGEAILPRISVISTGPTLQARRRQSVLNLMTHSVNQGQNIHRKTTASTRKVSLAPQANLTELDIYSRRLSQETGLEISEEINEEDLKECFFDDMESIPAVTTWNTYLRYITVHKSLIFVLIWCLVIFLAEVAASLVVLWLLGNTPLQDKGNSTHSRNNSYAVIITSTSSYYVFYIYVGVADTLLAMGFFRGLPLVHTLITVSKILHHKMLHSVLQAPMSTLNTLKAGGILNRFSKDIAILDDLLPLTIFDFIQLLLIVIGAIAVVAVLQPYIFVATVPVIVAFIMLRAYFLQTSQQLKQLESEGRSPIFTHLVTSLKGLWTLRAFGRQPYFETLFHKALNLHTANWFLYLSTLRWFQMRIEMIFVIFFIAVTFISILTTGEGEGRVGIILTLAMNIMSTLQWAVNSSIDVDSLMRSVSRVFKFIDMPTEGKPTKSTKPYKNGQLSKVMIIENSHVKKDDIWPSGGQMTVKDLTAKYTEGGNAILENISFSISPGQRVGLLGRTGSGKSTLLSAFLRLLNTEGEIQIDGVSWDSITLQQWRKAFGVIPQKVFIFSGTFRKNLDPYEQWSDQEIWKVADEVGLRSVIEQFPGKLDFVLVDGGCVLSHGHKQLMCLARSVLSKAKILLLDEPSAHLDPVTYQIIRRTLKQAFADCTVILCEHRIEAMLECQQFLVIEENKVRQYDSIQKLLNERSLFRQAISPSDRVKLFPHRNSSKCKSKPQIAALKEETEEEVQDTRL
Procedure for CYP3A4: Cryopreserved primary human hepatocytes were thawed and cultured overnight prior to treatment. […] Following the 48 hour treatment, hepatocytes were harvested for RNA isolation and reverse transcription, followed by CYP3A4 mRNA quantitation using RT-PCR (real time reverse transcript polymerase chain reaction).
Fold Induction=Fold of Treated/Fold of Vehicle Control % positive control=(Fold Induction of Treated−1)/(Fold Induction of Prototypical Inducer−1)

On F508delCFTR [1], `COc1ccc2c(c1)O[C@@H](c1cccc(C(=O)O)c1)C[C@H]2NC(=O)C1(c2ccc3c(c2)OC(F)(F)O3)CC1` [Example 1, 3-[(2R,4R)-4-({[1-(2,2-difluoro-1,3-benzodioxol-5-yl)cyclopropyl]carbonyl}amino)-7-methoxy-3,4-dihydro-2H-chromen-2-yl]benzoic acid] gave an EC50 of 280 nM and an Emax of 102%. The “CYP3A4 Hepatocytes mRNA % of positive control” value (“CYP3A4 Hepatocytes mRNA %” below) in the data set with CYP3A4 is given as 14%. In addition, at F508delCFTR [2], the EC50 is 290 nM and the Emax was 95%.

On to `O=C(O)C1CCCC([C@H]2C[C@@H](NC(=O)C3(c4ccc5c(c4)OC(F)(F)O5)CC3)c3ccc(C(F)(F)F)cc3O2)C1` (stereo partly drawn) [Example 109, 3-[(2R,4R)-4-({[1-(2,2-difluoro-1,3-benzodioxol-5-yl)cyclopropyl]carbonyl}amino)-7-(trifluoromethyl)-3,4-dihydro-2H-chromen-2-yl]cyclohexanecarboxylic acid], for which the EC50 came out at 450 nM at F508delCFTR [1] and 55 nM on F508delCFTR [2]. The results for the Emax on F508delCFTR [1] and at F508delCFTR [2] were 94% and 70%, respectively. In the data set on CYP3A4, the “CYP3A4 Hepatocytes mRNA %” value is 42.2%.

On F508delCFTR [1], `COc1ccc2c(c1)O[C@@H](c1ccc(OC)c(OC)c1)C[C@H]2NC(=O)C1(c2ccc3c(c2)OC(F)(F)O3)CC1` [Example 3, 1-(2,2-difluoro-1,3-benzodioxol-5-yl)-N-[(2R,4R)-2-(3,4-dimethoxyphenyl)-7-methoxy-3,4-dihydro-2H-chromen-4-yl]cyclopropanecarboxamide] gave an EC50 of 390 nM and an Emax of 135%. Moreover, the “CYP3A4 Hepatocytes mRNA %” value in the data set with CYP3A4 was found to be 49.3%.

As to `O=C(O)c1cccc([C@H]2C[C@@H](NC(=O)C3(c4ccc5c(c4)OC(F)(F)O5)CC3)c3cccc(F)c3O2)c1` [Example 119, 3-[(2R,4R)-4-({[1-(2,2-difluoro-1,3-benzodioxol-5-yl)cyclopropyl]carbonyl}amino)-8-fluoro-3,4-dihydro-2H-chromen-2-yl]benzoic acid], on F508delCFTR [1], the EC50 turned out to be 880 nM and the Emax turned out to be 71%. Further, at F508delCFTR [2], the EC50 was determined as 450 nM and the Emax was 80%.

On F508delCFTR [1], `COc1ccc2c(c1)O[C@@H](c1ccc(C(=O)O)c(F)c1)C[C@H]2NC(=O)C1(c2ccc3c(c2)OC(F)(F)O3)CC1` [Example 139, 4-[(2R,4R)-4-({[1-(2,2-difluoro-1,3-benzodioxol-5-yl)cyclopropyl]carbonyl}amino)-7-methoxy-3,4-dihydro-2H-chromen-2-yl]-2-fluorobenzoic acid] returned an EC50 of 100 nM and an Emax of 115%. Also, at F508delCFTR [2], the EC50 turned out to be 31.3 nM and the Emax came to 100%.

For the molecule `Cc1ccc2c(c1)[C@H](NC(=O)C1(c3ccc4c(c3)OC(F)(F)O4)CC1)C[C@H](c1cccc(C(=O)O)c1)O2` [Example 14, 3-[(2R,4R)-4-({[1-(2,2-difluoro-1,3-benzodioxol-5-yl)cyclopropyl]carbonyl}amino)-6-methyl-3,4-dihydro-2H-chromen-2-yl]benzoic acid], on F508delCFTR [1], the EC50 came out at 850 nM and the Emax worked out at 78%. Moreover, in the data set with CYP3A4, the “CYP3A4 Hepatocytes mRNA %” value is 3.54%.

At F508delCFTR [1], `O=C(O)C1CCCC([C@H]2C[C@@H](NC(=O)C3(c4ccc5c(c4)OC(F)(F)O5)CC3)c3ccc(OC(F)F)cc3O2)C1` (stereo partly drawn) [Example 26, 3-[(2R,4R)-4-({[1-(2,2-difluoro-1,3-benzodioxol-5-yl)cyclopropyl]carbonyl}amino)-7-(difluoromethoxy)-3,4-dihydro-2H-chromen-2-yl]cyclohexanecarboxylic acid] gave an EC50 of 340 nM and an Emax of 93%. Moreover, on F508delCFTR [2], the EC50 was determined as 110 nM and the Emax stood at 88%.

On to `O=C(O)c1cccc([C@H]2C[C@@H](NC(=O)C3(c4ccc5c(c4)OC(F)(F)O5)CC3)c3ccc(OC(F)F)cc3O2)c1` [Example 27, 3-[(2R,4R)-4-({[1-(2,2-difluoro-1,3-benzodioxol-5-yl)cyclopropyl]carbonyl}amino)-7-(difluoromethoxy)-3,4-dihydro-2H-chromen-2-yl]benzoic acid], for which, at F508delCFTR [1], the EC50 stood at 120 nM and the Emax was 113%. At F508delCFTR [2], the EC50 is 75 nM and the Emax is 117%.

With `O=C(O)c1ccc([C@H]2C[C@@H](NC(=O)C3(c4ccc5c(c4)OC(F)(F)O5)CC3)c3ccccc3O2)cc1` [Example 121, 4-[(2R,4R)-4-({[1-(2,2-difluoro-1,3-benzodioxol-5-yl)cyclopropyl]carbonyl}amino)-3,4-dihydro-2H-chromen-2-yl]benzoic acid], the figures for the 50% effective concentration (EC50) at F508delCFTR [1] and on F508delCFTR [2] were 130 nM and 38 nM, respectively. The Emax on F508delCFTR [1] was 102%; on F508delCFTR [2], 87%.

At F508delCFTR [1], `COc1ccc2c(c1)O[C@@H](C13CC(C(=O)O)(C1)C3)C[C@H]2NC(=O)C1(c2ccc3c(c2)OC(F)(F)O3)CC1` (racemic) [Example 148, rac-3-[(2R,4R)-4-({[1-(2,2-difluoro-1,3-benzodioxol-5-yl)cyclopropyl]carbonyl}amino)-7-methoxy-3,4-dihydro-2H-chromen-2-yl]bicyclo[1.1.1]pentane-1-carboxylic acid] gave an EC50 of 2120 nM and an Emax of 77%. Also, on F508delCFTR [2], the EC50 turned out to be 1100 nM and the Emax was 44%.

For the molecule `O=C(O)c1cccc([C@H]2C[C@@H](NC(=O)C3(c4ccc5c(c4)OC(F)(F)O5)CC3)c3ccc(F)cc3O2)c1` [Example 38, 3-[(2R,4R)-4-({[1-(2,2-difluoro-1,3-benzodioxol-5-yl)cyclopropyl]carbonyl}amino)-7-fluoro-3,4-dihydro-2H-chromen-2-yl]benzoic acid], the “CYP3A4 Hepatocytes mRNA %” value in the data set on CYP3A4 is 40.2%.

On F508delCFTR [1], `CCOC(=O)[C@H]1C[C@H](NC(=O)C2(c3ccc4c(c3)OC(F)(F)O4)CC2)c2ccc(OC)cc2O1` (racemic) [Example 130, Ethyl rac-(2R,4S)-4-({[1-(2,2-difluoro-1,3-benzodioxol-5-yl)cyclopropyl]carbonyl}amino)-7-methoxy-3,4-dihydro-2H-chromene-2-carboxylate] had an EC50 of 2560 nM and an Emax of 79%.

At F508delCFTR [1], `C[C@@]1(C(F)F)C[C@@H](NC(=O)C2(c3ccc4c(c3)OC(F)(F)O4)CC2)c2ccc(Cl)cc2O1` [Example 83, N-[(2S,4R)-7-chloro-2-(difluoromethyl)-2-methyl-3,4-dihydro-2H-chromen-4-yl]-1-(2,2-difluoro-1,3-benzodioxol-5-yl)cyclopropanecarboxamide] registered an EC50 of 2720 nM and an Emax of 106%.
